Patent publication US20060079566A1, “PDK-1/Akt signaling inhibitors” (priority 2003, published 2006)

Experiments:
[1] = tested on: PC-3 cells; test: Cell viability analysis (MTT) in PC-3 cells; type: cell-based, human; conditions: Homo sapiens; inducing apoptotic death in PC-3 cells / PC-3 cell viability; read-out: IC50 PC-3
Description: Cell Culture PC-3 (p53−/−) human androgen-nonresponsive prostate cancer cells were purchased from the American […] (Manassas, Va.). Cells were cultured in RPMI 1640 medium (Gibco, Grand Island, N.Y.) supplemented with 10% fetal bovine serum (FBS; Gibco) at 37° C. in a humidified incubator containing 5% CO2.
Cell viability analysis The effect of 4-[5-(4-methylphenyl)-3-(trifluoromethyl)-1H-pyrazol-1-yl]benzenesulfonamide and its derivatives on PC-3 cell viability was assessed by using the MTT {[3-(4,5-dimethylthiazol-2-yl)-2,5-diphenyl-2H-tetrazolium bromide]} assay in six replicates. Cells were grown in 10% FBS-supplemented RPMI 1640 medium in 96-well, flat bottomed plates for 24 h, and were exposed to various concentrations of compounds 1-36 dissolved in DMSO (final concentration ≦0.1%) in 1% serum-containing RPMI 1640 medium for different time intervals. Controls received DMSO vehicle at a concentration equal to that in drug-treated cells. The medium was removed, replaced by 200 μl of 0.5 mg/ml of MTT in 10% FBS-containing RPMI-1640 medium, and cells were incubated in the CO2 incubator at 37° C. for 2 h. Supernatants were removed from the wells, and the reduced MTT dye was solubilized in 200 μL/well DMSO. Absorbance at 570 nm was determined on a plate reader.

[2] = tested on: MOLT-4; test: NCI DTP screen (SRB), Leukemia; type: cell-based; conditions: Homo sapiens
Description: (§1) Screening of compounds 70 and 71 against several cancer cell lines The human tumor cell lines of the cancer screening panel are grown in RPMI 1640 medium containing 5% fetal bovine serum and 2 mM L-glutamine. For a typical screening experiment, cells are inoculated into 96 well microtiter plates in 100 μL at plating densities ranging from 5,000 to 40,000 cells/well depending on the doubling time of individual cell lines. After cell inoculation, the microtiter plates are incubated at 37° C., 5% CO2, 95% air and 100% relative humidity for 24 h prior to addition of experimental drugs.
(§2) After 24 h, two plates of each cell line are fixed in situ with TCA, to represent a measurement of the cell population for each cell line at the time of drug addition (Tz). Experimental drugs are solubilized in dimethyl sulfoxide at 400-fold the desired final maximum test concentration and stored frozen prior to use. At the time of drug addition, an aliquot of frozen concentrate is thawed and diluted to twice the desired final maximum test concentration with complete medium containing 50 μg/ml gentamicin. Additional four, 10-fold or ½ log serial dilutions are made to provide a total of five drug concentrations plus control. Aliquots of 100 μl of these different drug dilutions are added to the appropriate microtiter wells already containing 100 μl of medium, resulting in the required final drug concentrations.
(§3) Following drug addition, the plates are incubated for an additional 48 h at 37° C., 5% CO2, 95% air, and 100% relative humidity. For adherent cells, the assay is terminated by the addition of cold TCA. Cells are fixed in situ by the gentle addition of 50 μl of cold 50% (w/v) TCA (final concentration, 10% TCA) and incubated for 60 minutes at 4° C. The supernatant is discarded, and the plates are washed five times with tap water and air dried. Sulforhodamine B (SRB) solution (100 μl) at 0.4% (w/v) in 1% acetic acid is added to each well, and plates are incubated for 10 minutes at room temperature. After staining, unbound dye is removed by washing five times with 1% acetic acid and the plates are air dried. Bound stain is subsequently solubilized with 10 mM trizma base, and the absorbance is read on an automated plate reader at a wavelength of 515 nm. For suspension cells, the methodology is the same except that the assay is terminated by fixing settled cells at the bottom of the wells by gently adding 50 μl of 80% TCA (final concentration, 16% TCA). Using the seven absorbance measurements [time zero, (Tz), control growth, (C), and test growth in the presence of drug at the five concentration levels (Ti)], the percentage growth is calculated at each of the drug concentrations levels. Percentage growth inhibition is calculated as: [(Ti−Tz)/(C−Tz)]×100 for concentrations for which Ti>/=Tz [(Ti−Tz)/Tz]×100 for concentrations for which Ti<Tz
(§4) Three dose response parameters are calculated for each experimental agent. […] The drug concentration resulting in total growth inhibition (TGI) is calculated from Ti=Tz. […] Values are calculated for each of these three parameters if the level of activity is reached; however, if the effect is not reached or is exceeded, the value for that parameter is expressed as greater or less than the maximum or minimum concentration tested.

[3] = tested on: SR; test: NCI DTP screen (SRB), Leukemia; type: cell-based
Description: as §1, §2, §3, §4

[4] = tested on: RPMI-8226; test: NCI DTP screen (SRB), Leukemia; type: cell-based; conditions: Homo sapiens
Description: as §1, §2, §3, §4

[5] = tested on: K-562; test: NCI DTP screen (SRB), Leukemia; type: cell-based; conditions: Homo sapiens
Description: as §1, §2, §3, §4

[6] = tested on: COLO 205; test: NCI DTP screen (SRB), Colon Cancer; type: cell-based; conditions: Homo sapiens
Description: as §1, §2, §3, §4

[7] = tested on: KM12; test: NCI DTP screen (SRB), Colon Cancer; type: cell-based; conditions: Homo sapiens
Description: as §1, §2, §3, §4

[8] = tested on: SW-620; test: NCI DTP screen (SRB), Colon Cancer; type: cell-based; conditions: Homo sapiens
Description: as §1, §2, §3, §4

[9] = tested on: HCT-116; test: NCI DTP screen (SRB), Colon Cancer; type: cell-based; conditions: Homo sapiens
Description: as §1, §2, §3, §4

[10] = tested on: U251; test: NCI DTP screen (SRB), CNS Cancer; type: cell-based, human; conditions: Homo sapiens, U-251
Description: as §1, with “drugs. […]” for “drugs.”
Following drug addition, the plates are incubated for an additional 48 h at 37° C., 5% CO2, 95% air, and 100% relative humidity. […] Bound stain is subsequently solubilized with 10 mM trizma base, and the absorbance is read on an automated plate reader at a wavelength of 515 nm. […] Using the seven absorbance measurements [time zero, (Tz), control growth, (C), and test growth in the presence of drug at the five concentration levels (Ti)], the percentage growth is calculated at each of the drug concentrations levels. Percentage growth inhibition is calculated as: [(Ti−Tz)/(C−Tz)]×100 for concentrations for which Ti>/=Tz [(Ti−Tz)/Tz]×100 for concentrations for which Ti<Tz
Three dose response parameters are calculated for each experimental agent. […]

[11] = tested on: HCT-15; test: NCI DTP screen (SRB), Colon Cancer; type: cell-based; conditions: Homo sapiens
Description: After 24 h, two plates of each cell line are fixed in situ with TCA, to represent a measurement of the cell population for each cell line at the time of drug addition (Tz). Experimental drugs are solubilized in dimethyl sulfoxide at 400-fold the desired final maximum test concentration and stored frozen prior to use. […]
Following drug addition, the plates are incubated for an additional 48 h at 37° C., 5% CO2, 95% air, and 100% relative humidity. […] Bound stain is subsequently solubilized with 10 mM trizma base, and the absorbance is read on an automated plate reader at a wavelength of 515 nm. […] Using the seven absorbance measurements [time zero, (Tz), control growth, (C), and test growth in the presence of drug at the five concentration levels (Ti)], the percentage growth is calculated at each of the drug concentrations levels. Percentage growth inhibition is calculated as: [(Ti−Tz)/(C−Tz)]×100 for concentrations for which Ti>/=Tz [(Ti−Tz)/Tz]×100 for concentrations for which Ti<Tz […]

[12] = Preliminary animal studies, daily oral administration; conditions: data not shown
[13] = tested on: MCP7; test: NCI DTP screen (SRB), Breast Cancer; type: cell-based, human; conditions: MCP7
Description: as §1, §2, §3, §4

[14] = tested on: UO-31; test: NCI DTP screen (SRB), Renal Cancer; type: cell-based, human; conditions: Homo sapiens, UO-31
Description: as §1, §2, §3, §4

[15] = tested on: RXP 393; test: NCI DTP screen (SRB), Renal Cancer; type: cell-based, human
Description: as §1, §2, §3, §4

NCC(=O)Nc1ccc(-n2nc(C(F)(F)F)cc2-c2ccc3c(ccc4ccccc43)c2)cc1 [Compound 70, 2-Amino-N-{4-[5-(2-phenanthrenyl)-3-(trifluoromethyl)-1H-pyrazol-1-yl]-phenyl}-acetamide]
IC50 [1]: 5000 nM
GI50 ([2]; MOLT-4): 636 nM
CC50 ([2]; MOLT-4, read-out: LC50): > 100000 nM
GI50 ([3]; Homo sapiens): 711 nM
CC50 ([3]; Homo sapiens, read-out: LC50): > 100000 nM
Mean Optical Densities ([3]; Log10 Concentration −8.0): 0.816
GI50 [4]: 537 nM
CC50 ([5]; K562, read-out: LC50): > 100000 nM
GI50 ([5]; K562, K-562): 257 nM
GI50 [6]: 1190 nM
GI50 ([7]; KM12): 1070 nM
CC50 ([7]; KM12, read-out: LC50): 6620 nM
GI50 ([8]; SW-620): 1120 nM
CC50 ([8]; SW-620, read-out: LC50): > 100000 nM
GI50 ([9]; HCT-116): 1270 nM
CC50 ([9]; HCT-116, read-out: LC50): > 100000 nM
GI50 [10]: 775 nM
GI50 ([11]; HCT-15): 365 nM
CC50 ([11]; HCT-15, read-out: LC50): > 100000 nM
toxicity to the animals ([12]; daily oral administration for one month): little toxicity
oral absorption ([12]; preliminary animal studies): can be orally absorbed
GI50 ([13]; Homo sapiens): 718 nM
Percent Growth ([13]; Log10 Concentration −5.0): −57%
Percent Growth ([13]; Log10 Concentration −6.0): 43%
GI50 [14]: 1370 nM
GI50 ([15]; Homo sapiens): 1140 nM
Percent Growth ([15]; Log10 Concentration −4.0): 10%
Mean Optical Densities ([15]; Log10 Concentration −7.0): 0.700
Mean Optical Densities ([15]; Log10 Concentration −8.0): 0.766
